According to US9873683B2, “P2X4 receptor antagonist” (NIPPON CHEMIPHAR CO., LTD., priority 2013, dated 2018):
Several values for one entry are separate records, joined by “and”; a condition that tells them apart may be missing. Identical values can stand only once. Counter-ions that a name gives are not always drawn.

Target: human P2X4 receptor (Homo sapiens (Human), UniProt Q99571)
Experiment: P2X4 receptor antagonist activity (ATP-induced intracellular calcium, Fura-2 AM)
Format: cell-based
Conditions: 1321N1 cells stably expressing human P2X4 receptor; test substance 15 minutes before addition of ATP; Fura-2 AM F340/F380; read-out: Inhibitory activity IC50
Method: The ATP receptor (human P2X4) was introduced into the 1321N1 cells, and the cells were used as a stable ATP receptor expression system. The P2X4-expressing 1321N1 cells were seeded on a 96-well plate, cultured under the conditions of 37° C. and 5% CO2 for 24 hours, and used for calcium measurement. […] For the measurement, a microplate reader, Fluostar Optima (BMG Labtech), was used. The light emitted from a xenon lamp was passed through 340 nm and 380 nm filters, respectively, and irradiated on the cells, fluorescences of 510 nm, F340 and F380, emitted from the cells were measured, and change of the ratio F340/F380 was used as an index of change of intracellular calcium level. The measurement was performed by adding ATP to each well at a final concentration of 1 μM, and observing the ATP-induced Ca^2+ response over time.
The 1321N1 cells stably expressing human P2X4 receptor were seeded on a 96-well plate, cultured under the conditions of 37° C. and 5% CO2 for 24 hours, and then used for intracellular calcium measurement. Fura-2 AM, which is a calcium fluorescent indicator, was used for the intracellular calcium measurement. […] The ratio of fluorescence values obtained with excitation lights of 340 nm and 380 nm was used as an index of the change of intracellular calcium level, and the inhibitory activity of the test substance was calculated on the basis of the comparison with the value obtained in the absence of the test substance (control).

human P2X4 receptor, sequence (Q99571 whole entry): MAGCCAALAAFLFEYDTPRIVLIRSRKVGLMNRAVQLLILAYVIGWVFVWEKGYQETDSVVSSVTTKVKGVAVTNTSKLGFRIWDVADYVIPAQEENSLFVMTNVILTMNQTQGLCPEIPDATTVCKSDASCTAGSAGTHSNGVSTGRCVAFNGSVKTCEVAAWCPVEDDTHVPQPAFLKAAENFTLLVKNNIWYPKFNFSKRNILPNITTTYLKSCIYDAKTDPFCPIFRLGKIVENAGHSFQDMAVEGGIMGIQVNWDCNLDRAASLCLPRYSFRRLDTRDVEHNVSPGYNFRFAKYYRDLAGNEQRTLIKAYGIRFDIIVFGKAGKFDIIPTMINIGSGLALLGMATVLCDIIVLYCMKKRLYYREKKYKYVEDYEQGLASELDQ

Molecule	IC50
5-[4-[(5-Phenylethyl)-1H-imidazol-4-yl]phenyl]-1H-naphtho[1,2-b][1,4]diazepine-2,4(3H,5H)-dione hydrochloride [Example 73]	320 nM
COc1ccccc1Cc1nnnn1-c1ccc(N2C(=O)CC(=O)Nc3c2ccc2ccccc32)cc1 [Example 1, 5-[4-[5-(2-Methoxybenzyl)-1H-tetrazol-1-yl]phenyl]-1H-naphtho[1,2-b][1,4]diazepine-2,4(3H,5H)-dione]	25 nM
O=C1CC(=O)N(c2ccc(-n3nnnc3Cc3ccccc3O)cc2)c2ccc3ccccc3c2N1 [Example 2, 5-[4-[5-(2-Hydroxybenzyl)-1H-tetrazol-1-yl]phenyl]-1H-naphtho[1,2-b][1,4]diazepine-2,4(3H,5H)-dione]	37 nM
O=C1CC(=O)N(c2ccc(-n3nnnc3CCc3cccnc3)cc2)c2ccc3ccccc3c2N1 [Example 3, 5-[4-[5-[2-(Pyridin-3-yl)ethyl]-1H-tetrazol-1-yl]phenyl]-1H-naphtho[1,2-b][1,4]diazepine-2,4(3H,5H)-dione hydrochloride]	380 nM
O=C1CC(=O)N(c2ccc(-n3nnnc3CCc3ccccc3)cc2)c2ccc3ccccc3c2N1 [Example 4, 5-[4-(5-Phenethyl-1H-tetrazol-1-yl)phenyl]-1H-naphtho[1,2-b][1,4]diazepine-2,4(3H,5H)-dione]	44 nM
O=C1CC(=O)N(c2ccc(-n3nnnc3Cc3ccccc3O)nc2)c2ccc3ccccc3c2N1 [Example 11]	77 nM
COc1ccccc1Cc1nnnn1-c1ccc(C2=NCC(=O)Nc3c2ccc2ccccc32)cc1 [Example 19, 5-[4-[5-(2-Methoxybenzyl)-1H-tetrazol-1-yl]phenyl]-1H-naphtho[1,2-e][1,4]diazepin-2(3H)-one]	320 nM
O=C1CC(=O)N(c2ccc(-c3nccn3CCc3ccccc3)cc2)c2ccc3ccccc3c2N1 [Example 22, 5-[4-(1-Phenethyl-1H-imidazol-2-yl)phenyl]-1H-naphtho[1,2-b][1,4]diazepine-2,4(3H,5H)-dione hydrochloride]	91 nM
O=C1CC(=O)N(c2ccc(-c3nccn3Cc3ccc(Cl)cc3)cc2)c2ccc3ccccc3c2N1 [Example 23, 5-[4-[1-(4-Chlorobenzyl)-1H-imidazol-2-yl]phenyl]-1H-naphtho[1,2-b][1,4]diazepine-2,4(3H,5H)-dione hydrochloride]	300 nM
COc1cccc(CCn2ccnc2-c2ccc(N3C(=O)CC(=O)Nc4c3ccc3ccccc43)cc2)c1 [Example 25, 5-[4 [1-(3-Methoxyphenethyl)-1H-imidazol-2-yl]phenyl]-1H-naphtho[1,2-b][1,4]diazepine-2,4(3H,5H)-dione]	82 nM
O=C1CC(=O)N(c2ccc(-c3nccn3CCc3cccc(O)c3)cc2)c2ccc3ccccc3c2N1 [Example 27, 5-[4-[1-(3-Hydroxyphenethyl)-1H-imidazol-2-yl]phenyl]-1H-naphtho[1,2-b][1,4]diazepine-2,4(3H,5H)-dione]	78 nM
Cc1cccc(CCc2nnnn2-c2ccc(N3C(=O)CC(=O)Nc4c3ccc3ccccc43)cc2)n1 [Example 30, 5-[4-[5-[2-(6-Methylpyridin-2-ylethyl)-1H-tetrazol-1-yl]-phenyl]-1H-naphtho[1,2-b][1,4]diazepine-2,4(3H,5H)-dione hydrochloride]	270 nM
O=C1CC(=O)N(c2ccc(-n3ccnc3CCc3cccc(F)c3)cc2)c2ccc3ccccc3c2N1 [Example 31, 5-[4-[(2-(3-Fluorophenyl)ethyl)-1H-imidazol-1-yl]phenyl]-1H-naphtho[1,2-b][1,4]diazepine-2,4(3H,5H)-dione hydrochloride]	51 nM
COc1ccccc1CCc1nccn1-c1ccc(N2C(=O)CC(=O)Nc3c2ccc2ccccc32)cc1 [Example 32, 5-[4-[(2-(2-Methoxyphenyl)ethyl)-1H-imidazol-1-yl]phenyl]-1H-naphtho[1,2-b][1,4]diazepine-2,4(3H,5H)-dione hydrochloride]	180 nM
Cc1cccc(C)c1CCc1nccn1-c1ccc(N2C(=O)CC(=O)Nc3c2ccc2ccccc32)cc1 [Example 37, 5-[4-[2-(2,6-Dimethylphenylethyl)-1H-imidazol-1-yl]phenyl]-1H-naphtho[1,2-b][1,4]diazepine-2,4(3H,5H)-dione hydrochloride]	79 nM
O=C1CC(=O)N(c2ccc(-n3ccnc3CCc3cccc(C(F)(F)F)c3)cc2)c2ccc3ccccc3c2N1 [Example 38, 5-[4-[2-[3-(Trifluoromethyl)phenylethyl]-1H-imidazol-1-yl]phenyl]-1H-naphtho[1,2-b][1,4]diazepine-2,4(3H,5H)-dione hydrochloride]	550 nM

Molecule	IC50
O=C1CN=C(c2ccc(-n3nnnc3CCc3ccccc3)cc2)c2ccc3ccccc3c2N1 [Example 40, 5-[4-(5-Phenethyl-1H-tetrazol-1-yl)phenyl]-1H-naphtho[1,2-e][1,4]diazepin-2(3H)-one]	630 nM
O=C1CN=C(c2ccc(-n3ccnc3CCc3ccccc3)cc2)c2ccc3ccccc3c2N1 [Example 41, 5-[4-(2-Phenethyl-1H-imidazol-1-yl)phenyl]-1H-naphtho[1,2-e][1,4]diazepin-2(3H)-one dihydrochloride]	650 nM
O=C1CC(=O)N(c2ccc(-n3ccnc3CCc3cccc(O)c3)cc2)c2ccc3ccccc3c2N1 [Example 43, 5-[4-[2-(3-Hydroxyphenethyl)-1H-imidazol-1-yl]phenyl]-1H-naphtho[1,2-b][1,4]diazepine-2,4(3H,5H)-dione hydrochloride]	53 nM and 190 nM
CN(C)c1ccccc1Cc1nnnn1-c1ccc(N2C(=O)CC(=O)Nc3c2ccc2ccccc32)cc1 [Example 47, 5-[4-[5-[2-(Dimethylamino)benzyl]-1H-tetrazol-1-yl]phenyl]-1H-naphtho[1,2-b][1,4]diazepine-2,4(3H,5H)-dione mesylate]	94 nM
O=C1CC(=O)N(c2ccc(-n3ccnc3-c3ccccc3)cc2)c2ccc3ccccc3c2N1 [Example 50, 5-[4-(2-Phenyl-1H-imidazol-1-yl)phenyl]-1H-naphtho[1,2-b][1,4]diazepine-2,4(3H,5H)-dione]	3700 nM
COc1ccccc1-c1nccn1-c1ccc(N2C(=O)CC(=O)Nc3c2ccc2ccccc32)cc1 [Example 51, 5-[4-[2-(2-Methoxyphenyl)-1H-imidazol-1-yl]phenyl]-1H-naphtho[1,2-b][1,4]diazepine-2,4(3H,5H)-dione]	1700 nM
NC(=O)c1ccccc1Cn1ccnc1-c1ccc(N2C(=O)CC(=O)Nc3c2ccc2ccccc32)cc1 [Example 53, 2-[[2-[4-(2,4-Dioxo-3,4-dihydro-1H-naphtho[1,2-b][1,4]diazepin-5(2H)-yl)phenyl]-1H-imidazol-1-yl]methyl]benzamide]	590 nM
N#Cc1ccccc1CCc1nccn1-c1ccc(N2C(=O)CC(=O)Nc3c2ccc2ccccc32)cc1 [Example 54, 2-[2-[1-[4-(2,4-Dioxo-3,4-dihydro-1H-naphtho[1,2-b][1,4]diazepin-5(2H)-yl)phenyl]-1H-imidazol-2-yl]ethyl]benzonitrile]	190 nM
NC(=O)c1ccccc1CCc1nccn1-c1ccc(N2C(=O)CC(=O)Nc3c2ccc2ccccc32)cc1 [Example 55, 2-[2-[1-[4-(2,4-Dioxo-3,4-dihydro-1H-naphtho[1,2-b][1,4]diazepin-5(2H)-yl)phenyl]-1H-imidazol-2-yl]ethyl]benzamide]	340 nM
NC(=O)c1cccc(CCc2nccn2-c2ccc(N3C(=O)CC(=O)Nc4c3ccc3ccccc43)cc2)c1 [Example 57, 3-[2-[1-[4-(2,4-Dioxo-3,4-dihydro-1H-naphtho[1,2-b][1,4]diazepin-5(2H)-yl)phenyl]-1H-imidazol-2-yl]ethyl]benzamide]	130 nM
COc1cccc(CCc2nccn2-c2ccc(N3C(=O)CC(=O)Nc4c3ccc3c4CCC3)cc2)c1 [Example 61, 5-[4-[2-(3-Methoxyphenethyl)-1H-imidazol-1-yl]phenyl]-5,8,9,10-tetrahydroindeno[4,5-b][1,4]diazepine-2,4(1H,3H)-dione hydrochloride]	74 nM
O=C1CC(=O)N(c2ccc(-n3ccnc3CCc3ccsc3)cc2)c2ccc3ccccc3c2N1 [Example 62, 5-[4-[2-[2-(Thiophen-3-yl)ethyl]-1H-imidazol-1-yl]phenyl]-1H-naphtho[1,2-b][1,4]diazepine-2,4(3H,5H)-dione hydrochloride]	88 nM
COc1cc(N2C(=O)CC(=O)Nc3c2ccc2ccccc32)ccc1-c1nccn1CCc1ccccc1 [Example 64, 5-[3-Methoxy-4-(1-phenethyl-1H-imidazol-2-yl)-phenyl]-1H-naphtho[1,2-b][1,4]diazepine-2,4(3H,5H)-dione]	520 nM
O=C1CC(=O)N(c2ccc(-c3nccn3CCc3ccccc3)c(O)c2)c2ccc3ccccc3c2N1 [Example 65, 5-[3-Hydroxy-4-(1-phenethyl-1H-imidazol-2-yl)-phenyl]-1H-naphtho[1,2-b][1,4]diazepine-2,4(3H,5H)-dione]	130 nM
O=C1CC(=O)N(c2ccc(-n3ccnc3CCc3ccco3)cc2)c2ccc3ccccc3c2N1 [Example 66, 5-[4-[2-[2-(Furan-2-yl)ethyl]-H-imidazol-1-yl]-phenyl]-1H-naphtho[1,2-b][1,4]diazepine-2,4(3H,5H)-dione hydrochloride]	550 nM
